Data: patent US5080904A, “Liposome composition and its production” (Takeda Chemical Industries, Ltd., priority 1989, dated 1992)

Assays:
[1] = Phase transition temperature of the lipid; type: physicochemical
[2] = Biochemica et Biophysica Acta, 859, 246-256 (1986); cited from earlier work

Compound	phase transition temperature (found value) of phospholipid [1]	phase transition temperature of sulfatide, first value [2] [°C]	phase transition temperature of sulfatide, second value [2] [°C]
CCCCCCCCCCCCCC(=O)OC[C@H](COP(=O)([O-])OCC[N+](C)(C)C)OC(=O)CCCCCCCCCCCCC [DMPC, dimyristoylphosphatidylcholine]	23.9 °C		
CCCCCCCCCCCCCC(=O)OCC(COP(=O)(O)OCCN)OC(=O)CCCCCCCCCCCCC (centres unmarked) [DMPE, dimyristoylphosphatidylethanolamine]	50 °C		
CCCCCCCCCCCCCCCC(=O)OC[C@H](COP(=O)([O-])OCC[N+](C)(C)C)OC(=O)CCCCCCCCCCCCCCC [DPPC, dipalmitoylphosphatidylcholine]	41.4 °C		
CCCCCCCCCCCCCCCC(=O)OCC(COP(=O)(O)OCCN)OC(=O)CCCCCCCCCCCCCCC (centres unmarked) [DPPE, dipalmitoylphosphatidylethanolamine]	60 °C		
CCCCCCCCCCCCCCCC(=O)OCC(COP(=O)(O)OCC(N)C(=O)O)OC(=O)CCCCCCCCCCCCCCC (centres unmarked) [DPPS, dipalmitoylphosphatidylserine]	51 °C		
CCCCCCCCCCCCCCCCCC(=O)OCC(COP(=O)([O-])OCC[N+](C)(C)C)OC(=O)CCCCCCCCCCCCCCCCC (centres unmarked) [DSPC, distearoylphosphatidylcholine]	54.9 °C		
CCCCCCCCCCCCCCCCCC(=O)OCC(COP(=O)(O)OCCN)OC(=O)CCCCCCCCCCCCCCCCC (centres unmarked) [DSPE, disteraroylphosphatidylethanolamine]	over 60 °C		
CCCCCCCCCCCCCCCCCC(=O)OCC(COP(=O)(O)OCC(N)C(=O)O)OC(=O)CCCCCCCCCCCCCCCCC (centres unmarked) [DSPS, distearoylphosphatidylserine]	over 50 °C		
CCCCCCCCCCCCCCCC(=O)OC[C@H](COP(=O)([O-])OCC[N+](C)(C)C)OC(=O)CCCCCCCCCCCCC [PMPC, palmitoylmyristoylphosphatidylcholine]	27.2 °C		
CCCCCCCCCCCCCCCCCC(=O)OC[C@H](COP(=O)([O-])OCC[N+](C)(C)C)OC(=O)CCCCCCCCCCCCCCC [SPPC, stearoylpalmitoylphosphatidylcholine]	44.0 °C		
dipalmitoylsphingomyelin [DPSM]	41 °C		
distearoylsphingomyelin [DSSM]	57 °C		
sulfatide		34.8	47.3

More lines, main results first:

phase transition temperature (found value) of phospholipid [1]	Compound	phase transition temperature of sulfatide, first value [2] [°C]	phase transition temperature of sulfatide, second value [2] [°C]
23 °C	CCCCCCCCCCCCCC(=O)OCC(COP(=O)(O)OCC(O)CO)OC(=O)CCCCCCCCCCCCC (centres unmarked) [DMPG, dimyristoylphosphatidylglycerol]		
38 °C	CCCCCCCCCCCCCC(=O)OCC(COP(=O)(O)OCC(N)C(=O)O)OC(=O)CCCCCCCCCCCCC (centres unmarked) [DMPS, dimyristoylphosphatidylserine]		
41 °C	CCCCCCCCCCCCCCCC(=O)OCC(COP(=O)(O)OCC(O)CO)OC(=O)CCCCCCCCCCCCCCC (centres unmarked) [DPPG, dipalmitoylphosphatidylglycerol]		
55 °C	CCCCCCCCCCCCCCCCCC(=O)OCC(COP(=O)(O)OCC(O)CO)OC(=O)CCCCCCCCCCCCCCCCC (centres unmarked) [DSPG, distearoylphosphatidylglycerol]		
47.4 °C	CCCCCCCCCCCCCCCCCC(=O)O[C@H](COC(=O)CCCCCCCCCCCCCCC)COP(=O)([O-])OCC[N+](C)(C)C [PSPC, palmitoylstearoylphosphatidylcholine]		
35.3 °C	myristoylpalmitoylphosphatidylcholine [MPPC]		
